Measured values: patent US20220380432A1, “Acylated Calcitonin Mimetics” (KeyBioscience AG, priority 2018, published 2022)
Blank lines part the entries; values can stand above or below the molecule they belong to. Numbered stars: 1 amine (or outer) side, 2 acyl side, 3 side chain; on linkers, the order of the positions; unused ones are H or OH. Bridge positions count the residues as written; N and C are the ends. Square brackets hold non-standard residues; d marks the D form. Side chains are listed from the residue outwards. Ends that are not written are not given here. Peptide text beside a SMILES is read from it. * marks the point of attachment. C18 diacid = O=C(O)CCCCCCCCCCCCCCCCC(=O)*; γGlu = O=C(O)[C@H](CCC(=O)[*:2])N[*:1]; AEEA = NCCOCCOCC(=O)O; Aib = CC(C)(N)C(=O)O

Tests used:
male ZDF rats = experiment: Chronic study in male ZDF rats (food intake, body weight, FBG, HbA1c, OGTT); assay type: in vivo, rat; details: 62-day study
Description: A chronic study was performed in male ZDF rats. (obese homozygous recessive (fa/fa) strain: 370) (Charles River, USA). Rats were delivered 5 weeks of age. The rats were housed 2-3 per cage.
Rats were delivered to the animal facility of Nordic Bioscience at five weeks of age (DAY −6). Rats were acclimatized for three days. HbA1c and BW was registered (DAY −3). Rats were randomized based on HbA1c (primarily) and BW (secondly) at […]. The study was initiated at DAY 1.
Animals were dosed once daily with KBP-066 or saline (vehicle). Dosing with KBP-066A11.03 was performed once every third day. Dosing was administered subcutaneously (SC) around noon.
Saline: Dosage volume was 1 mL/kg. […]
DAY −3: HbA1c measurement DAY 1: (first day of study), rats were fasted for 6 h and a BG and blood sample was taken. […] Hb1Ac is measured during the OGTT at t=120 or t=180. […]
Food intake was monitored daily. Body weight was monitored daily for first three weeks, then twice weekly after week three.
Fasting blood glucose was monitored every two weeks using Accu-Check® Avia monitoring system (Roche Diagnostics, Rotkreuz, Switzerland): Measurement was taken from the tail vein (25 G needle).
Rats were non-fasted for the first (randomization) and second (after the second OGTT) HbA1c measurement. A single drop of blood was applied to the HbA1c cassette and the HbA1c was measured using a DCA Vantage Analyzer. […]

[1] = system: serum albumin from humans (HSA); assay type: binding, man (Homo sapiens)
Description: FIG. 14: Competitive ligand binding assay using radio labelled salmon calcitonin (^125I-sCT) as tracer and conducted 2% serum albumin from two different species, rat (Rattus norvegicus) and man (Homo sapiens). As a tracer 0.25 nM ^125I-sCT was used. A) Competitive binding assay conducted in 2% RSA. B) Competitive binding assay conducted in 2% HSA. Data as +/−SEM. To investigate whether the improved efficacy in the acute setting of acylation 4 and 5 could be translated to man, a competitive ligand binding assay was conducted to explore acylation binding to serum albumin in rodent and man.

Amylin Receptor (AMY-R) = biological target: T1, Amylin Receptor (AMY-R) (Homo sapiens (Human), UniProt P30988); experiment: cell-based or functional assay
T1 sequence 1: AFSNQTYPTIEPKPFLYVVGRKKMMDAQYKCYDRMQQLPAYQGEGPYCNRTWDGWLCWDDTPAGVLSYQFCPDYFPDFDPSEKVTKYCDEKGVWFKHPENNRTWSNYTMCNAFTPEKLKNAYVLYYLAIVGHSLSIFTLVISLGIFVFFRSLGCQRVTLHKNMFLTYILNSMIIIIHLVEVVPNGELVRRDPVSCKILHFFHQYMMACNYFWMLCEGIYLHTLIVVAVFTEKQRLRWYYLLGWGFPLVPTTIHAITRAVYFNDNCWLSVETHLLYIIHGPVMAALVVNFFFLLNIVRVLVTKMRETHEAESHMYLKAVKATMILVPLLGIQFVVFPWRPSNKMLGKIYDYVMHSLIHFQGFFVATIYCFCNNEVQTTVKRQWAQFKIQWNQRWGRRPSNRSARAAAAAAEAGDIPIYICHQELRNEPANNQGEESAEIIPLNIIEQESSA
T1 sequence 2: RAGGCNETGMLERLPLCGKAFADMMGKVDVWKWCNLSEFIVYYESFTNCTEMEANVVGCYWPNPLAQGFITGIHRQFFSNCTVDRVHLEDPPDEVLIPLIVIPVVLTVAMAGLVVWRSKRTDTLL

[2] = biological target: T2, Calcitonin Receptor (CTR) (Homo sapiens (Human), UniProt P30988); experiment: cell-based or functional assay
T2 sequence: T1 sequence 1

Molecule: CSNLSTC(AiB)LGRLSQDLHRLQTYPKTDVGANAP [KBP-066]
- fasting blood glucose (in words) (male ZDF rats): reduced FBG in a dose dependent manner

- EC50 in competitive binding (in words) [1]: no differences in EC50
Molecule: CC(=O)N[C@H]1CSSC[C@@H](C(=O)NC(C)(C)C(=O)N[C@@H](CC(C)C)C(=O)NCC(=O)N[C@@H](CCCCNC(=O)COCCOCCNC(=O)COCCOCCNC(=O)CC[C@H](NC(=O)CCCCCCCCCCCCCCCCC(=O)O)C(=O)O)C(=O)N[C@@H](CC(C)C)C(=O)N[C@@H](CO)C(=O)N[C@@H](CCC(N)=O)C(=O)N[C@@H](CC(=O)O)C(=O)N[C@@H](CC(C)C)C(=O)N[C@@H](Cc2c[nH]cn2)C(=O)N[C@@H](CCCNC(=N)N)C(=O)N[C@@H](CC(C)C)C(=O)N[C@@H](CCC(N)=O)C(=O)N[C@H](C(=O)N[C@@H](Cc2ccc(O)cc2)C(=O)N2CCC[C@H]2C(=O)N[C@@H](CCCCN)C(=O)N[C@H](C(=O)N[C@@H](CC(=O)O)C(=O)N[C@H](C(=O)NCC(=O)N[C@@H](C)C(=O)N[C@@H](CC(N)=O)C(=O)N[C@@H](C)C(=O)N2CCC[C@H]2C(N)=O)C(C)C)[C@@H](C)O)[C@@H](C)O)NC(=O)[C@H]([C@@H](C)O)NC(=O)[C@H](CO)NC(=O)[C@H](CC(C)C)NC(=O)[C@H](CC(N)=O)NC(=O)[C@H](CO)NC1=O [KBP-356] (Ac-CSNLSTC[Aib]LGK([AEEA-AEEA-γGlu-C18 diacid])LSQDLHRLQTYPKTDVGANAP-NH2; disulfide 1-7 (inferred))

- β-arrestin Fold Recruitment EC50 values (10^-9 M) (Amylin Receptor (AMY-R)): 301 nM
- β-arrestin Fold Recruitment EC50 values (10^-9 M) [2]: 197 nM
B1: KBP-318 (peptide)
peptide: Ac-CSNLSTCMLGRLSQELHRLQTYPKTDVGANAPK
modifications: not fully specified (residue 33); ends and bridges not checked
